Results from EP0565593B1, “REDUCING PESTICIDAL INTERACTIONS IN CROPS” (priority 1990, dated 1992).
Read-outs that look alike come from different tables or passages of the source.

What was measured:
Shattercane (SHCA) = format: in vivo; conditions: […]
Velvetleaf (VELE) [1] = format: in vivo, Abutilon theophrasti; conditions: […]
Giant foxtail (GIFT) = test: whole plant or invertebrate; format: in vivo
Velvetleaf (VELE) [2] = test: whole plant or invertebrate; format: in vivo, Abutilon theophrasti
Corn [3] = conditions: […]
Corn [4] = system: Corn
[5] = observed 7 days after POE (Table 35)
[6] = observed 7 days after POE (Table 36)
[7] = observed 9 days later (Table 29)
[8] = observed 9 days later (Table 30)
[9] = […], PPI, 13 days after PPI (Table 31)
[10] = observed 8 days later (Table 32)
[11] = observed 8 days later (Table 33)
[12] = […], PPI, 14 days after PPI (Table 34)
[13] = antidote number given but rate '-' (Table 33)
[14] = […], antidote number given but rate '-', 14 days after PPI (Table 34)

## CCCCCCOC(=O)c1sc(Cl)nc1C(F)(F)F [compound 62]
Shattercane (SHCA); [5]
  % Inhibition SHCA: 65%
Shattercane (SHCA); [6]
  % Inhibition SHCA: 30%
Velvetleaf (VELE) [1]; [5]
  % Inhibition VELE: 80%
Velvetleaf (VELE) [1]; [6]
  % Inhibition VELE: 60%
Giant foxtail (GIFT); in vivo
  % Inhibition GIFT: 75%
Velvetleaf (VELE) [2]; in vivo
  % Inhibition VELE: 95%
Corn [3]; [5]
  % Inhibition Corn: 30%
Corn [3]; [6]
  % Inhibition Corn: 55%
Corn [4]; in vivo
  % Inhibition Corn: 65%

## O=C(C(Cl)Cl)N1CCN(C(=O)C(Cl)Cl)CC1 [compound 3]
Shattercane (SHCA); [7]
  % Inhibition SHCA: 70%
Shattercane (SHCA); [8]
  % Inhibition SHCA: 40%
Velvetleaf (VELE) [1]; [7]
  % Inhibition VELE: 95%
Velvetleaf (VELE) [1]; [8]
  % Inhibition VELE: 70%
Giant foxtail (GIFT); [9]
  % Inhibition GIFT: 75%
Velvetleaf (VELE) [2]; [9]
  % Inhibition VELE: 95%
Corn [3]; [7]
  % Inhibition Corn: 35%
Corn [3]; [8]
  % Inhibition Corn: 60%
Corn [4]; [9]
  % Inhibition Corn: 55%

## CCOC(=O)COC(c1c(C)cccc1C)c1c(C)cccc1C [compound 58]
Shattercane (SHCA); [10]
  % Inhibition SHCA: 70%
Shattercane (SHCA); [11]
  % Inhibition SHCA: 30%
Velvetleaf (VELE) [1]; [10]
  % Inhibition VELE: 85%
Velvetleaf (VELE) [1]; [11]
  % Inhibition VELE: 70%
Giant foxtail (GIFT); [12]
  % Inhibition GIFT: 60%
Velvetleaf (VELE) [2]; [12]
  % Inhibition VELE: 90%
Corn [3]; [10]
  % Inhibition Corn: 55%
Corn [3]; [11]
  % Inhibition Corn: 45%
Corn [4]; [12]
  % Inhibition Corn: 30%

## O=C(O)COC(c1ccccc1)c1ccccc1 [compound 80]
Shattercane (SHCA); [10]
  % Inhibition SHCA: 80%
Shattercane (SHCA); [11]
  % Inhibition SHCA: 35%
Velvetleaf (VELE) [1]; [10]
  % Inhibition VELE: 85%
Velvetleaf (VELE) [1]; [11]
  % Inhibition VELE: 75%
Giant foxtail (GIFT); [12]
  % Inhibition GIFT: 65%
Velvetleaf (VELE) [2]; [12]
  % Inhibition VELE: 100%
Corn [3]; [10]
  % Inhibition Corn: 20%
Corn [3]; [11]
  % Inhibition Corn: 55%
Corn [4]; [12]
  % Inhibition Corn: 40%

## CC1(C)OC(c2cc3ccccc3o2)CN1C(=O)C(Cl)Cl (stereo not drawn) [compound 38]
Shattercane (SHCA); [7]
  % Inhibition SHCA: 80%
Shattercane (SHCA); [8]
  % Inhibition SHCA: 25%
Velvetleaf (VELE) [1]; [7]
  % Inhibition VELE: 95%
Velvetleaf (VELE) [1]; [8]
  % Inhibition VELE: 70%
Giant foxtail (GIFT); [9]
  % Inhibition GIFT: 70%
Velvetleaf (VELE) [2]; [9]
  % Inhibition VELE: 85%
Corn [3]; [7]
  % Inhibition Corn: 20%
Corn [3]; [8]
  % Inhibition Corn: 45%
Corn [4]; [9]
  % Inhibition Corn: 50%

## CCOC(=O)CNC(c1ccc(Cl)cc1)c1ccc(Cl)cc1 [compound 44]
Shattercane (SHCA); [10]
  % Inhibition SHCA: 80%
Shattercane (SHCA); [11]
  % Inhibition SHCA: 30%
Velvetleaf (VELE) [1]; [10]
  % Inhibition VELE: 85%
Velvetleaf (VELE) [1]; [11]
  % Inhibition VELE: 65%
Giant foxtail (GIFT); [12]
  % Inhibition GIFT: 65%
Velvetleaf (VELE) [2]; [12]
  % Inhibition VELE: 95%
Corn [3]; [10]
  % Inhibition Corn: 65%
Corn [3]; [11]
  % Inhibition Corn: 60%
Corn [4]; [12]
  % Inhibition Corn: 75%

## NC(=S)COC(c1ccccc1)c1ccccc1 [compound 46]
Shattercane (SHCA); [10]
  % Inhibition SHCA: 70%
Shattercane (SHCA); [11]
  % Inhibition SHCA: 25%
Velvetleaf (VELE) [1]; [10]
  % Inhibition VELE: 90%
Velvetleaf (VELE) [1]; [11]
  % Inhibition VELE: 70%
Giant foxtail (GIFT); [12]
  % Inhibition GIFT: 60%
Velvetleaf (VELE) [2]; [12]
  % Inhibition VELE: 85%
Corn [3]; [10]
  % Inhibition Corn: 50%
Corn [3]; [11]
  % Inhibition Corn: 55%
Corn [4]; [12]
  % Inhibition Corn: 65%

## CCCCOC(=O)c1sc(Cl)nc1C(F)(F)F [compound 61]
Shattercane (SHCA); [5]
  % Inhibition SHCA: 65%
Shattercane (SHCA); [6]
  % Inhibition SHCA: 35%
Velvetleaf (VELE) [1]; [5]
  % Inhibition VELE: 75%
Velvetleaf (VELE) [1]; [6]
  % Inhibition VELE: 65%
Giant foxtail (GIFT); in vivo
  % Inhibition GIFT: 70%
Velvetleaf (VELE) [2]; in vivo
  % Inhibition VELE: 90%
Corn [3]; [5]
  % Inhibition Corn: 35%
Corn [3]; [6]
  % Inhibition Corn: 55%
Corn [4]; in vivo
  % Inhibition Corn: 60%

## CC(C)(C)OC(=O)COC1c2ccccc2CCc2ccccc21 [compound 45]
Shattercane (SHCA); [10]
  % Inhibition SHCA: 85%
Shattercane (SHCA); [11]
  % Inhibition SHCA: 25%
Velvetleaf (VELE) [1]; [10]
  % Inhibition VELE: 80%
Velvetleaf (VELE) [1]; [11]
  % Inhibition VELE: 70%
Giant foxtail (GIFT); [12]
  % Inhibition GIFT: 75%
Velvetleaf (VELE) [2]; [12]
  % Inhibition VELE: 90%
Corn [3]; [10]
  % Inhibition Corn: 65%
Corn [3]; [11]
  % Inhibition Corn: 65%
Corn [4]; [12]
  % Inhibition Corn: 70%

## O=C(COC(c1ccccc1)c1ccccc1)OCC(F)(F)F [compound 48]
Shattercane (SHCA); [10]
  % Inhibition SHCA: 80%
Shattercane (SHCA); [11]
  % Inhibition SHCA: 25%
Velvetleaf (VELE) [1]; [10]
  % Inhibition VELE: 90%
Velvetleaf (VELE) [1]; [11]
  % Inhibition VELE: 70%
Giant foxtail (GIFT); [12]
  % Inhibition GIFT: 60%
Velvetleaf (VELE) [2]; [12]
  % Inhibition VELE: 95%
Corn [3]; [10]
  % Inhibition Corn: 20%
Corn [3]; [11]
  % Inhibition Corn: 45%
Corn [4]; [12]
  % Inhibition Corn: 30%

## Cc1csc(=NC(C)c2ccccc2)s1 (stereo not drawn) [compound 69]
Shattercane (SHCA); [5]
  % Inhibition SHCA: 75%
Shattercane (SHCA); [6]
  % Inhibition SHCA: 40%
Velvetleaf (VELE) [1]; [5]
  % Inhibition VELE: 80%
Velvetleaf (VELE) [1]; [6]
  % Inhibition VELE: 70%
Giant foxtail (GIFT); in vivo
  % Inhibition GIFT: 70%
Velvetleaf (VELE) [2]; in vivo
  % Inhibition VELE: 90%
Corn [3]; [5]
  % Inhibition Corn: 30%
Corn [3]; [6]
  % Inhibition Corn: 50%
Corn [4]; in vivo
  % Inhibition Corn: 35%

## Cc1cccc(C)c1C(OCC(=O)O)c1c(C)cccc1C [compound 56]
Shattercane (SHCA); [10]
  % Inhibition SHCA: 75%
Shattercane (SHCA); [11]
  % Inhibition SHCA: 30%
Velvetleaf (VELE) [1]; [10]
  % Inhibition VELE: 85%
Velvetleaf (VELE) [1]; [11]
  % Inhibition VELE: 75%
Giant foxtail (GIFT); [12]
  % Inhibition GIFT: 75%
Velvetleaf (VELE) [2]; [12]
  % Inhibition VELE: 85%
Corn [3]; [10]
  % Inhibition Corn: 60%
Corn [3]; [11]
  % Inhibition Corn: 60%
Corn [4]; [12]
  % Inhibition Corn: 65%

## CCOC(=O)c1sc(I)nc1C(F)(F)F [compound 67]
Shattercane (SHCA); [5]
  % Inhibition SHCA: 65%
Shattercane (SHCA); [6]
  % Inhibition SHCA: 40%
Velvetleaf (VELE) [1]; [5]
  % Inhibition VELE: 85%
Velvetleaf (VELE) [1]; [6]
  % Inhibition VELE: 70%
Giant foxtail (GIFT); in vivo
  % Inhibition GIFT: 75%
Velvetleaf (VELE) [2]; in vivo
  % Inhibition VELE: 95%
Corn [3]; [5]
  % Inhibition Corn: 35%
Corn [3]; [6]
  % Inhibition Corn: 45%
Corn [4]; in vivo
  % Inhibition Corn: 55%

## CC(C)(C#N)OC(=O)COC(c1ccccc1)c1ccccc1 [compound 59]
Shattercane (SHCA); [13]
  % Inhibition SHCA: 0%
Shattercane (SHCA); [10]
  % Inhibition SHCA: 80%
Velvetleaf (VELE) [1]; [13]
  % Inhibition VELE: 0%
Velvetleaf (VELE) [1]; [10]
  % Inhibition VELE: 85%
Giant foxtail (GIFT); [14]
  % Inhibition GIFT: 30%
Velvetleaf (VELE) [2]; [14]
  % Inhibition VELE: 20%
Corn [3]; [13]
  % Inhibition Corn: 0%
Corn [3]; [10]
  % Inhibition Corn: 15%
Corn [4]; [14]
  % Inhibition Corn: 0%

## CCCCCCCCOC(=O)c1sc(Cl)nc1C(F)(F)F [compound 63]
Shattercane (SHCA); [5]
  % Inhibition SHCA: 70%
Shattercane (SHCA); [6]
  % Inhibition SHCA: 40%
Velvetleaf (VELE) [1]; [5]
  % Inhibition VELE: 80%
Velvetleaf (VELE) [1]; [6]
  % Inhibition VELE: 65%
Giant foxtail (GIFT); in vivo
  % Inhibition GIFT: 70%
Velvetleaf (VELE) [2]; in vivo
  % Inhibition VELE: 90%
Corn [3]; [5]
  % Inhibition Corn: 30%
Corn [3]; [6]
  % Inhibition Corn: 55%
Corn [4]; in vivo
  % Inhibition Corn: 65%
